According to ChEMBL document CHEMBL5291721, “A preclinical secondary pharmacology resource illuminates target-adverse drug reaction associations of marketed drugs” (Nat Commun, 2023):

Legend:
[1] = target: Beta-3 adrenergic receptor (Homo sapiens, UniProt P13945)
Androgen receptor = target: T1, Androgen receptor (Rattus norvegicus, UniProt P15207)
T1 sequence (P15207 whole entry): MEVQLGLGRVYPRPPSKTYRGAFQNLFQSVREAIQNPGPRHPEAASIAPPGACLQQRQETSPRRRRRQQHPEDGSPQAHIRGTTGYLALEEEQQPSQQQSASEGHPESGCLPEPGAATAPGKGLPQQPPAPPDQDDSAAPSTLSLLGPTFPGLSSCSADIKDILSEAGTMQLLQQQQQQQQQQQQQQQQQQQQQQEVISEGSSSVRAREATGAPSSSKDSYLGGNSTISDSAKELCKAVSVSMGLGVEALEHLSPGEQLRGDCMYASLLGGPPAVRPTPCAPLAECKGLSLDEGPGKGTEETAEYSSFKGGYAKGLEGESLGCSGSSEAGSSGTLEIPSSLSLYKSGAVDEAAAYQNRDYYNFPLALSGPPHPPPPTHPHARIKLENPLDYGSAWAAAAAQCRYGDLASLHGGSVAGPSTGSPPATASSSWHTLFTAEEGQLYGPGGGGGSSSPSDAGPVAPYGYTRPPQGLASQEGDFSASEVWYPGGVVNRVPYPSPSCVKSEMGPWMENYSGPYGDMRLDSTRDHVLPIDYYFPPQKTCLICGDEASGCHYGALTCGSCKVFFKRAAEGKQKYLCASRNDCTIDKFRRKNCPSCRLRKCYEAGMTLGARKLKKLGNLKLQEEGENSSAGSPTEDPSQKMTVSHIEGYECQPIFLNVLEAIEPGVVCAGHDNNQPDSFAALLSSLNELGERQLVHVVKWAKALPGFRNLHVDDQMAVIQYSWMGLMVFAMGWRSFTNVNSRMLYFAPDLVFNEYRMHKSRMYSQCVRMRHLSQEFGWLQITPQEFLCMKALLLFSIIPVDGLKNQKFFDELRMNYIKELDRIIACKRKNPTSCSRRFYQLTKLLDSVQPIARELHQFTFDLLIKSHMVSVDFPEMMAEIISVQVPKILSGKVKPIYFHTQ

[2] = target: Voltage-dependent N-type calcium channel subunit alpha-1B (Rattus norvegicus, UniProt Q02294); format: functional
[3] = target: T2, Corticotropin-releasing factor receptor 1 (Homo sapiens, UniProt P34998)
T2 sequence (P34998 whole entry): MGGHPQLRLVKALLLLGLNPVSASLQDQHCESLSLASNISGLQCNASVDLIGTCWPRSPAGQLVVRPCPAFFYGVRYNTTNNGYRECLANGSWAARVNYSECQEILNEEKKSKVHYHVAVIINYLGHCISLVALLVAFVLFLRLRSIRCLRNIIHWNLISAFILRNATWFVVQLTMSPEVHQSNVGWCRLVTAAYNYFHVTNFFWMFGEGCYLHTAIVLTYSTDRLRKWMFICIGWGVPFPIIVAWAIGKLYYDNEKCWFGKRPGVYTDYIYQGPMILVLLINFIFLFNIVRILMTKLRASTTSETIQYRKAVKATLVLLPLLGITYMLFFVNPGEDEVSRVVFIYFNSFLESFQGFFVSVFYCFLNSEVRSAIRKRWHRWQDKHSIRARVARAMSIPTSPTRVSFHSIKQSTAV

Histamine H2 receptor = Histamine H2 receptor (Homo sapiens, UniProt P25021)
[4] = target: 5-hydroxytryptamine receptor 2B (Homo sapiens, UniProt P41595)
[5] = target: Neurotensin receptor type 1 (Homo sapiens, UniProt P30989)
[6] = target: T3, Alpha-2A adrenergic receptor (Homo sapiens, UniProt P08913)
T3 sequence (P08913 whole entry): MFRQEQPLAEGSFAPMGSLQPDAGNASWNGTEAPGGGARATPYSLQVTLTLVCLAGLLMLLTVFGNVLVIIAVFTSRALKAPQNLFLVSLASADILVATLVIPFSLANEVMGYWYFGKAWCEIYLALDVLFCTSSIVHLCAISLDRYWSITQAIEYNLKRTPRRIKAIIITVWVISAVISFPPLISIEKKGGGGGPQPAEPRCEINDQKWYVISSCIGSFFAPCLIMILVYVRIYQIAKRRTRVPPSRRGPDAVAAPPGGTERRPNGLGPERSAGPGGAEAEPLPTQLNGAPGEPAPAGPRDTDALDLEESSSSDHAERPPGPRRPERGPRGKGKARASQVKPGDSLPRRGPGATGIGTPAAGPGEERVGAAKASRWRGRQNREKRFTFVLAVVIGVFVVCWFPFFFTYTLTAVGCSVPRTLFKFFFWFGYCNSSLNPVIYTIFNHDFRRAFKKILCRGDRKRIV

[7] = target: T4, 5-hydroxytryptamine receptor 1A (Homo sapiens, UniProt P08908)
T4 sequence (P08908 whole entry): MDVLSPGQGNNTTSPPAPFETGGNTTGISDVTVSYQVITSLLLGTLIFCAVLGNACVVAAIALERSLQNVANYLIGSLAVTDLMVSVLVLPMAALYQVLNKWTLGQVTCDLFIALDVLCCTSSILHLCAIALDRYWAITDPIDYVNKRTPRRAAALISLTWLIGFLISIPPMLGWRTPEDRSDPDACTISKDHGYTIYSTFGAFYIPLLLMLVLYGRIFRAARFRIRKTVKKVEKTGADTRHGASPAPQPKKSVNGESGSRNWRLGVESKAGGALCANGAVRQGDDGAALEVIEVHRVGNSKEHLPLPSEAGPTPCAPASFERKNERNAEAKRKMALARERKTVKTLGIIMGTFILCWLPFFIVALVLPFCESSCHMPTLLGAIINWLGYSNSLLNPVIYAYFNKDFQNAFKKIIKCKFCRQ

[8] = target: T5, Muscarinic acetylcholine receptor M2 (Homo sapiens, UniProt P08172)
T5 sequence (P08172 whole entry): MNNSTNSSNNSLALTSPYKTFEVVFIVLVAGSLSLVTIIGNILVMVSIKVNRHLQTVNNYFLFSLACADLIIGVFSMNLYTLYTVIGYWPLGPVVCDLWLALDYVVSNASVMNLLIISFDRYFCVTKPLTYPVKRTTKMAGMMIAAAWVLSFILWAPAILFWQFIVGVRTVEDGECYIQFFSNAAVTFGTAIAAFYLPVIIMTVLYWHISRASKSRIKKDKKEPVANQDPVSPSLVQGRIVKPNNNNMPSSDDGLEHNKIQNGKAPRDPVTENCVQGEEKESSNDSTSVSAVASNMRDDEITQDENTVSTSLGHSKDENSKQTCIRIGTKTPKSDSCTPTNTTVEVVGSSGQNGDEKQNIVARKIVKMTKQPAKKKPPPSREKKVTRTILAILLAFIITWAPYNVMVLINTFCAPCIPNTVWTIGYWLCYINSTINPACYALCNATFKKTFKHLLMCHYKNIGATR
Also: assay procedure not described here.

Beta-3 adrenergic receptor, sequence (P13945 whole entry): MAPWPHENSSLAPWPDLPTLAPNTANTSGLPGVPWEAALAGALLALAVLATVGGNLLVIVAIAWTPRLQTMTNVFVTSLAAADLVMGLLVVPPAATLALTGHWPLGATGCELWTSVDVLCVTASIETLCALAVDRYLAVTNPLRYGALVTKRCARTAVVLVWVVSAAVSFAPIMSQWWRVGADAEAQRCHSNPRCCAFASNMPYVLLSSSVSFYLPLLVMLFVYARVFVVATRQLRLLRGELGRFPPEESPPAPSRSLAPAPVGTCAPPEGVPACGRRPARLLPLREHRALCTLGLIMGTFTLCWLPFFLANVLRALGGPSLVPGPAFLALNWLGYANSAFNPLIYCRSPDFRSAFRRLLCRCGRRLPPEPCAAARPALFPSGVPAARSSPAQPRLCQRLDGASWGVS
5-hydroxytryptamine receptor 2B, sequence (P41595 whole entry): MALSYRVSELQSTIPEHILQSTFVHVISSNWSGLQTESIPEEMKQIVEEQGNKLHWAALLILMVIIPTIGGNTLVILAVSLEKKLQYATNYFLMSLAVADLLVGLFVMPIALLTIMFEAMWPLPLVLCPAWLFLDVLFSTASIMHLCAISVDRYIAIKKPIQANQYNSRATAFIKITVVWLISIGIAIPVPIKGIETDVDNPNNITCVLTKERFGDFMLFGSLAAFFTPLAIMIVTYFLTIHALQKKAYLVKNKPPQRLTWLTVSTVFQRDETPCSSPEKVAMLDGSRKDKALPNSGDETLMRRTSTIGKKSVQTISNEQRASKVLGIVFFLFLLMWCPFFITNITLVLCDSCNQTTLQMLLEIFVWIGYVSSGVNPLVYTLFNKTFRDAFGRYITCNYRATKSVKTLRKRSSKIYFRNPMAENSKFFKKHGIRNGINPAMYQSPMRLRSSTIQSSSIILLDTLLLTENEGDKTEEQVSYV
Histamine H2 receptor, sequence (P25021 whole entry): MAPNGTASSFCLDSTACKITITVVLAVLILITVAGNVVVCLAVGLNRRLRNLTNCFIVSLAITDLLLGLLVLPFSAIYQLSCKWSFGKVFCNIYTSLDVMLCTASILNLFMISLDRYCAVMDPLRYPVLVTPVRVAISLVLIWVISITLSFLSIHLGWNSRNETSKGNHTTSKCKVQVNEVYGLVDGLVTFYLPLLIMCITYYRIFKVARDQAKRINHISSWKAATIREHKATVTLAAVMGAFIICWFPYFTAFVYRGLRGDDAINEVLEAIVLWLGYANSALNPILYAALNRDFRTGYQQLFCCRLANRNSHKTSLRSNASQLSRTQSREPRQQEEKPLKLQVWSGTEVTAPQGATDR
Voltage-dependent N-type calcium channel subunit alpha-1B, sequence (Q02294 whole entry): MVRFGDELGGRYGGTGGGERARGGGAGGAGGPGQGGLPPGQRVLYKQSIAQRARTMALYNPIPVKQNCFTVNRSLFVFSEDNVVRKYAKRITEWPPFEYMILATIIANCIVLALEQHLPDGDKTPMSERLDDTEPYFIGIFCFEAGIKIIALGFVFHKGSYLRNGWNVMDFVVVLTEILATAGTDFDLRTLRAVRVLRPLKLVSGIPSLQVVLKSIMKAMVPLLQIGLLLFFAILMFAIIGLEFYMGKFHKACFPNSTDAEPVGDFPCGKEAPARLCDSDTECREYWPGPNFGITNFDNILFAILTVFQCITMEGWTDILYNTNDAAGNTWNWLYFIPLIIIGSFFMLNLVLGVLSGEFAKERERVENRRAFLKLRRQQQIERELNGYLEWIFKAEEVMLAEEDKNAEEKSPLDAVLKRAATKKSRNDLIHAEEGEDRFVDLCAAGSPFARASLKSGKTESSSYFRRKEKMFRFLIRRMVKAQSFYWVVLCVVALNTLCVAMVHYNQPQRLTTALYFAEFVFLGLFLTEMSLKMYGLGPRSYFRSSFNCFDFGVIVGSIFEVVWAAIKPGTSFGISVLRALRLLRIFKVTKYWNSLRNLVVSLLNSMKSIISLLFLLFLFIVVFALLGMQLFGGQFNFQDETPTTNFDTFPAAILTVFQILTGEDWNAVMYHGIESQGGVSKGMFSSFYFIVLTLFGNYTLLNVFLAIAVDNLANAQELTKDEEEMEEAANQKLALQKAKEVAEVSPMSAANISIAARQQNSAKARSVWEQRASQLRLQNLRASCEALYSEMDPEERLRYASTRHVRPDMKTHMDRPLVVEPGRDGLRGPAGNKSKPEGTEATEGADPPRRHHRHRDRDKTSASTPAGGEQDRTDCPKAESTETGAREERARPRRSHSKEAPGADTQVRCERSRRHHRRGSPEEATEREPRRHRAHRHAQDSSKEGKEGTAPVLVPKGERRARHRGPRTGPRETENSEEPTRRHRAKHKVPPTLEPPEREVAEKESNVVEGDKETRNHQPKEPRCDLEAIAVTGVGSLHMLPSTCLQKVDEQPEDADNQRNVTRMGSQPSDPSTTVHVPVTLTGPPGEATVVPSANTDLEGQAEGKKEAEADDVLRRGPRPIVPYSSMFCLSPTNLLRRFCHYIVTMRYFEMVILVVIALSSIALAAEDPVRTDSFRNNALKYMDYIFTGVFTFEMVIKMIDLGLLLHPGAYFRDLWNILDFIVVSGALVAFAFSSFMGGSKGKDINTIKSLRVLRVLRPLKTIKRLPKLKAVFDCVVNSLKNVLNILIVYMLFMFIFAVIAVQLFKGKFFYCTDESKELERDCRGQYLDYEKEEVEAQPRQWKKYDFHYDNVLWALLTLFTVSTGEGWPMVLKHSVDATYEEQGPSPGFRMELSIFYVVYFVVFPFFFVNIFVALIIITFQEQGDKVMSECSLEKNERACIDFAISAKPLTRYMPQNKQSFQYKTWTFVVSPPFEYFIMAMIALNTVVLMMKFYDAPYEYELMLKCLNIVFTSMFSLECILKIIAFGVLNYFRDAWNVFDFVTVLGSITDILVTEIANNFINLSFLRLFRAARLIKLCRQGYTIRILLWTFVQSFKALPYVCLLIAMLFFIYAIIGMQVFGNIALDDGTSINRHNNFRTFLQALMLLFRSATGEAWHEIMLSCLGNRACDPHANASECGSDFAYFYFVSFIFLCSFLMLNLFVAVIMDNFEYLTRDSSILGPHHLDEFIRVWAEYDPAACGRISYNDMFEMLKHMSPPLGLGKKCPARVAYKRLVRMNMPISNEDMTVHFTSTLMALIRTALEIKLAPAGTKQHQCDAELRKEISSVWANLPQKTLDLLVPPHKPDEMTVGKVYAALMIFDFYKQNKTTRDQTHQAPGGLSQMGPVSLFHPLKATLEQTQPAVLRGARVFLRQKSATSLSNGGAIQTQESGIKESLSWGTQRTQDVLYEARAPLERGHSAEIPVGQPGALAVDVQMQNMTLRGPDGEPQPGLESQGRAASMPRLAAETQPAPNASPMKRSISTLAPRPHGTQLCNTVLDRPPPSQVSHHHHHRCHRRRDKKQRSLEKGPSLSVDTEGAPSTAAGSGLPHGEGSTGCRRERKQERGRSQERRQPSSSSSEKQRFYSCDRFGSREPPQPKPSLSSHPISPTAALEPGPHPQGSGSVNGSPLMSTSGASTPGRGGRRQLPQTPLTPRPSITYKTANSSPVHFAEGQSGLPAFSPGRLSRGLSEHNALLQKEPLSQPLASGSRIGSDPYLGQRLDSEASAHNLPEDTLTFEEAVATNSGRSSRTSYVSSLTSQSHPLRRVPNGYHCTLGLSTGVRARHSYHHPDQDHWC
Neurotensin receptor type 1, sequence (P30989 whole entry): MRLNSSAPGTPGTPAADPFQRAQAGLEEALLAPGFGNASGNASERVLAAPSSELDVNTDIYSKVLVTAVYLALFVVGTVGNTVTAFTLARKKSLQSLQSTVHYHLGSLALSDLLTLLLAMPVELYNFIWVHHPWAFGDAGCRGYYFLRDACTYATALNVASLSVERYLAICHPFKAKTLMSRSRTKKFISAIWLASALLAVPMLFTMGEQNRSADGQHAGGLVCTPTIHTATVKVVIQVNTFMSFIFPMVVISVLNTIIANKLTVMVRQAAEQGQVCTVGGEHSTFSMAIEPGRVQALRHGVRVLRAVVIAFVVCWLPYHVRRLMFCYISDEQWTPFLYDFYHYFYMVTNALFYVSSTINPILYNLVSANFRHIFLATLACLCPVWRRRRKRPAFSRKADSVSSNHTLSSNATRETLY

Row | SMILES | AC50 [1] [µM] | AC50 (Androgen receptor) [µM] | AC50 [2] [µM] | AC50 [3] [µM] | AC50 (Histamine H2 receptor) [µM] | AC50 [4] [µM] | AC50 [5] [µM] | AC50 [6] [µM] | AC50 [7] [µM] | AC50 [8] [µM]
1 | COc1ccc2cccc(CCNC(C)=O)c2c1 [AGOMELATINE] | > 30 | > 30 | > 10 | > 30 | > 10 | 0.879 | > 30 | > 10 | > 10 | > 10
2 | CN1CCc2cccc3c2[C@H]1Cc1ccc(O)c(O)c1-3 [APOMORPHINE] | > 30 |  | > 10 | > 30 | > 10 | 1.27 | > 30 | 2.37 |  | > 10
3 | CC(C)c1c(C(=O)Nc2ccccc2)c(-c2ccccc2)c(-c2ccc(F)cc2)n1CC[C@@H](O)C[C@@H](O)CC(=O)O [ATORVASTATIN] | > 30 |  | > 10 | > 30 | > 10 |  | > 30 | > 10 | > 10 | 
4 | Cc1cc2c(OCC(CNC(C)(C)C)OC(=O)c3ccccc3)cccc2[nH]1 (configuration not stated) [BOPINDOLOL] |  |  |  |  |  |  |  |  | 0.0522 | 
5 | CCOc1cc(N)c([N+](=O)[O-])cc1C(=O)NC1CCN(CC2CC=CCC2)CC1 (configuration not stated) [CINITAPRIDE] |  |  |  |  |  | 0.0023 |  |  |  | 
6 | CC(=O)O[C@@]12CO[C@@H]1C[C@H](O)[C@@]1(C)C(=O)[C@H](O)C3=C(C)[C@@H](OC(=O)[C@H](O)[C@@H](NC(=O)OC(C)(C)C)c4ccccc4)C[C@@](O)([C@@H](OC(=O)c4ccccc4)[C@H]21)C3(C)C [DOCETAXEL ANHYDROUS] |  | > 30 |  |  |  |  |  |  |  | 
7 | CN[C@@H](C)[C@H](O)c1ccccc1 [EPHEDRINE] | > 30 |  | > 10 | > 30 | > 10 | > 10 | > 30 | > 10 | > 10 | > 10
8 | C#CC1(OC(N)=O)CCCCC1 [ETHINAMATE] |  | > 10 |  |  |  |  |  |  |  | 
9 | CCNC(C)Cc1cccc(C(F)(F)F)c1 (configuration not stated) [FENFLURAMINE] | > 30 |  | > 10 | > 30 |  |  | > 30 |  |  | > 10
10 | CCC1(C2=CCCCCC2)C(=O)NC(=O)NC1=O [HEPTABARBITAL] |  | > 10 |  |  |  |  |  |  |  | 
11 | CCCCCN(C)CCC(O)(P(=O)(O)O)P(=O)(O)O [IBANDRONIC ACID] | > 30 | > 30 | > 10 | > 30 | > 10 | > 10 | > 30 | > 10 | > 10 | 
12 | CC(C)[N+](C)(CCC(C(N)=O)(c1ccccc1)c1ccccc1)C(C)C [ISOPROPAMIDE] |  |  |  |  |  |  |  |  |  | 0.012
13 | COC(=O)C1=C(C)NC(C)=C(C(=O)OC(C)C)C1c1cccc2nonc12 (configuration not stated) [ISRADIPINE] |  | > 30 |  |  |  |  |  |  |  | 
14 | CN1CC[C@]23CCCC[C@H]2[C@H]1Cc1ccc(O)cc13 [LEVORPHANOL] |  | > 10 |  |  |  |  |  | 19 |  | 
15 | CCN1CCC[C@H]1CNC(=O)c1cc(S(N)(=O)=O)ccc1OC [LEVOSULPIRIDE] |  | > 30 |  |  |  |  |  | > 10 | > 10 | 
16 | CC1=CC(=O)c2ccccc2C1=O [MENADIONE] |  | > 30 |  |  |  |  |  |  |  | 
17 | Cc1cc(-c2ccccc2)nnc1NCCN1CCOCC1 [MINAPRINE] | > 30 |  | > 10 | > 30 | > 10 | 1.4 | > 30 | > 10 | > 10 | > 10
18 | NC(=O)C[S+]([O-])C(c1ccccc1)c1ccccc1 (configuration not stated) [MODAFINIL] | > 30 |  | > 10 | > 30 | > 10 | > 10 | > 30 | > 10 | > 10 | > 10
19 | CCCCCCCCOc1ccccc1C(=O)Nc1ccc(C(=O)OCC[N+](C)(CC)CC)cc1 [OTILONIUM BROMIDE] |  |  |  |  |  | 0.712 |  |  | > 30 | 
20 | CN1CCCN=C1COC(=O)C(O)(c1ccccc1)C1CCCCC1 (configuration not stated) [OXYPHENCYCLIMINE] |  |  |  |  |  |  |  |  |  | 0.0263
21 | CN1CCC2=C(C1)C(c1ccccc1)c1ccccc12 (configuration not stated) [PHENINDAMINE] |  | > 30 |  |  |  |  |  |  |  | 
22 | O=C(O)CCCc1ccccc1 [PHENYLBUTANOIC ACID] | > 30 |  | > 10 | > 30 |  | > 10 | > 30 | > 10 | > 10 | > 10
23 | CC(Cc1ccccc1)NCCC(c1ccccc1)c1ccccc1 (configuration not stated) [PRENYLAMINE] |  |  |  |  |  |  |  |  | 0.957 | 
24 | CCN(CC)CCOC(=O)c1ccc(N)cc1 [PROCAINE] |  |  | > 10 |  |  |  |  | > 10 | > 10 | 
25 | C#CCN[C@@H]1CCc2ccccc21 [RASAGILINE] |  | > 30 |  |  |  |  |  |  |  | 
26 | C1COC(NC(C2CC2)C2CC2)=N1 [RILMENIDINE] |  |  |  |  |  |  |  | 3.49 | 20.5 | 
27 | O=C1NCCN1CCN1CCC(c2cn(-c3ccc(F)cc3)c3ccc(Cl)cc23)CC1 [SERTINDOLE] |  |  |  |  |  | 0.012 |  |  |  | 
28 | CN[C@@H]1[C@H](O)[C@H](NC)[C@H]2O[C@@]3(O)C(=O)C[C@@H](C)O[C@H]3O[C@@H]2[C@H]1O [SPECTINOMYCIN] |  | > 10 |  |  |  |  |  |  |  | 
29 | Cc1ccc(-c2nc3ccc(C)cn3c2CC(=O)N(C)C)cc1 [ZOLPIDEM] | > 30 |  | > 10 | > 30 | > 10 | > 10 | > 30 | > 10 | > 10 | > 10
30 | CN1CCN(C(=O)OC2c3nccnc3C(=O)N2c2ccc(Cl)cn2)CC1 (configuration not stated) [ZOPICLONE] | > 30 |  | > 10 | > 30 | > 10 | > 10 | > 30 | > 10 | > 10 | 
